{
  "source": "patent US20230172959A1",
  "about": "“USE OF NMN FOR THE PREVENTION AND/OR TREATMENT OF A BACK PAIN AND CORRESPONDING COMPOSITIONS” (NUVAMID SA, priority 2020, published 2023)",
  "key": {"chronic lumbalgia [1]": {"test_system": "chronic lumbalgia", "experiment": "Lequesne algo-functional index, 10-day satisfaction study in 12 volunteers", "type": "in vivo, human", "experimental": "As for the Lequesne score, it varies from 0 to 22: the higher the score, the more extreme or even intolerable the impairment. From 8 to 10, the impairment is qualified as significant and for an index score greater than or equal to 10, the impairment is qualified as very significant. A satisfaction study was carried out on a group of 12 volunteers, aged 42±8 years, consisting of seven female and five male subjects. The main objective of this study was to evaluate the level of satisfaction of subjects with regard to the evolution of their lumbalgia (low back pain) during the morning and/or evening application of a composition according to the invention containing 5% by weight of NMN. A composition in the form of an oil-in-water emulsion comprising 5% NMN was formulated as follows, the ingredients being designated by their INCI (International Nomenclature of Cosmetic Ingredients) name: Aqua, Paraffinum liquidum, Cetyl alcohol, Glyceryl stearate, Benzyl PCA, Ceteareth-20, Ceteareth-12, Cetyl Palmitate, Cocoglycerides, Cetearyl alcohol, Sodium Hydroxide, NMN. The composition was prepared according to any method well known to the person skilled in the art. The study took place over 10 days. At baseline, ie upon inclusion (DO), the selected subjects provide their demographic characteristics (age, weight, height), indicate the period of persistence and intensity of the pain on a Visual Analogue Scale, and complete the WOMAC and Lequesne questionnaires. […] On day 10, the volunteers complete the WOMAC questionnaire, the Lequesne questionnaire, the Visual Analogue Scale (VAS) of pain, indicating the perceived improvement in lumbalgia pain relief as measured by the PGI-I index (abbreviation for “Patient Global Improvement Impression”), satisfaction with regard to evolution of the lumbalgia on a Likert scale as well as the ease of application and penetration of the composition, assessment of the texture and odour of the composition, likelihood of re-use thereof in the event of recurrence of a similar pain, and recommendation of use to third parties presenting with pain of similar nature. […]"}, "chronic lumbalgia [2]": {"test_system": "chronic lumbalgia", "experiment": "Visual Analogue Scale (VAS) of lumbalgia pain, 10-day satisfaction study in 12 volunteers", "type": "in vivo, human", "settings": "for VAS lumbalgia pain, median / VAS lumbalgia pain, mean: 5% NMN oil-in-water emulsion topical twice a day, scale 0-100; for VAS lumbalgia pain, median: baseline D 0 72.5; for VAS lumbalgia pain, mean: baseline D 0 73.4", "experimental": "A satisfaction study was carried out on a group of 12 volunteers, aged 42±8 years, consisting of seven female and five male subjects. The main objective of this study was to evaluate the level of satisfaction of subjects with regard to the evolution of their lumbalgia (low back pain) during the morning and/or evening application of a composition according to the invention containing 5% by weight of NMN. The duration of the existence of pains in the lumbar spine region was on average 4±3 years (ie […]) while the current pains of the subjects dated back to 2±3 years pre-baseline (before inclusion). These pains occurred mostly spontaneously (58.3%). More precisely, seven participants presented with a lumbalgia of spontaneous origin, one participant presented with a lumbalgia resulting from a physical or sporting activity, two participants attributed their lumbalgia to the practice of gardening, and two other participants attributed their lumbalgia to another of these causes. The participants therefore all had chronic lumbalgia. A composition in the form of an oil-in-water emulsion comprising 5% NMN was formulated as follows, the ingredients being designated by their INCI (International Nomenclature of Cosmetic Ingredients) name: Aqua, Paraffinum liquidum, Cetyl alcohol, Glyceryl stearate, Benzyl PCA, Ceteareth-20, Ceteareth-12, Cetyl Palmitate, Cocoglycerides, Cetearyl alcohol, Sodium Hydroxide, NMN. The composition was prepared according to any method well known to the person skilled in the art. The study took place over 10 days. At baseline, ie upon inclusion (DO), the selected subjects provide their demographic characteristics (age, weight, height), indicate the period of persistence and intensity of the pain on a Visual Analogue Scale, and complete the WOMAC and Lequesne questionnaires. These different scales were used in order to assess by different means the effect of NMN on lumbalgia. Over the subsequent 9 day period, each evening the subjects fill in the Visual Analogue Scale of pain, ensuring any discomfort or problems arising or the taking of analgesics are reported therein. On day 10, the volunteers complete the WOMAC questionnaire, the Lequesne questionnaire, the Visual Analogue Scale (VAS) of pain, indicating the perceived improvement in lumbalgia pain relief as measured by the PGI-I index (abbreviation for “Patient Global Improvement Impression”), satisfaction with regard to evolution of the lumbalgia on a Likert scale as well as the ease of application and penetration of the composition, assessment of the texture and odour of the composition, likelihood of re-use thereof in the event of recurrence of a similar pain, and recommendation of use to third parties presenting with pain of similar nature. The PGI-I index is an index that serves as means for evaluating the response to a treatment. The Likert scale is a psychometric tool used for measuring an attitude in individuals, which consists of one or more statements for which the individual responding expresses their degree of agreement or disagreement."}},
  "note": "Values joined by “and” are separate entries in the source; they are usually repeats but may differ in a detail not shown here. Identical values can stand only once.",
  "data": [
    {"smiles": "NC(=O)c1ccc[n+]([C@@H]2O[C@H](COP(=O)([O-])O)[C@@H](O)[C@H]2O)c1", "note": "(stereo in doubt) [NMN, nicotinamide mononucleotide]", "values": [
      {"measurement": "reduction in the Lequesne score", "setting": "chronic lumbalgia [1]; baseline to study endpoint", "result": 38.8, "unit": "%"},
      {"measurement": "subjects with no impairment or only a modest or slight impairment (Lequesne)", "setting": "chronic lumbalgia [1]; end of the study", "result": 83.4, "unit": "%"},
      {"measurement": "Lequesne algo-functional score", "setting": "chronic lumbalgia [1]; study endpoint (day 10), baseline 8.3±2.5, p<0.001, 5% NMN emulsion topical", "result": "5.3±3.8"},
      {"measurement": "reduction of lumbalgia pain measured by the VAS", "setting": "chronic lumbalgia [2]; 10 days of application vs baseline, 5% NMN emulsion topical, p<0.0001", "result": "58.7±29.2% and 58.7%"},
      {"measurement": "VAS lumbalgia pain, median", "setting": "chronic lumbalgia [2]; D 1", "result": 60.5},
      {"measurement": "VAS lumbalgia pain, mean", "setting": "chronic lumbalgia [2]; D 1", "result": 61.1},
      {"measurement": "VAS lumbalgia pain, median", "setting": "chronic lumbalgia [2]; D 2", "result": 59.0},
      {"measurement": "VAS lumbalgia pain, mean", "setting": "chronic lumbalgia [2]; D 2", "result": 56.8},
      {"measurement": "VAS lumbalgia pain, median", "setting": "chronic lumbalgia [2]; D 3", "result": 57.5},
      {"measurement": "VAS lumbalgia pain, mean", "setting": "chronic lumbalgia [2]; D 3", "result": 52.3},
      {"measurement": "VAS lumbalgia pain, median", "setting": "chronic lumbalgia [2]; D 4", "result": 51.0},
      {"measurement": "VAS lumbalgia pain, mean", "setting": "chronic lumbalgia [2]; D 4", "result": 49.4},
      {"measurement": "VAS lumbalgia pain, median", "setting": "chronic lumbalgia [2]; D 5", "result": 45.5},
      {"measurement": "VAS lumbalgia pain, mean", "setting": "chronic lumbalgia [2]; D 5", "result": 45.7},
      {"measurement": "VAS lumbalgia pain, median", "setting": "chronic lumbalgia [2]; D 6", "result": 42.5},
      {"measurement": "VAS lumbalgia pain, mean", "setting": "chronic lumbalgia [2]; D 6", "result": 42.4},
      {"measurement": "VAS lumbalgia pain, median", "setting": "chronic lumbalgia [2]; D 7", "result": 48.0},
      {"measurement": "VAS lumbalgia pain, mean", "setting": "chronic lumbalgia [2]; D 7", "result": 45.2},
      {"measurement": "VAS lumbalgia pain, median", "setting": "chronic lumbalgia [2]; D 8", "result": 38.0},
      {"measurement": "VAS lumbalgia pain, mean", "setting": "chronic lumbalgia [2]; D 8", "result": 35.8},
      {"measurement": "VAS lumbalgia pain, median", "setting": "chronic lumbalgia [2]; D 9", "result": 26.0},
      {"measurement": "VAS lumbalgia pain, mean", "setting": "chronic lumbalgia [2]; D 9", "result": 28.3},
      {"measurement": "VAS lumbalgia pain, median", "setting": "chronic lumbalgia [2]; D 10", "result": 30.0},
      {"measurement": "VAS lumbalgia pain, mean", "setting": "chronic lumbalgia [2]; D 10", "result": "30.8±22.6 and 30.8"},
      {"measurement": "mean time period to obtain an initial 50% reduction in pain relative to baseline", "setting": "chronic lumbalgia [2]; VAS, 5% NMN emulsion topical twice a day", "result": "5.0 ± 2.9", "unit": "days"}
    ]}
  ]
}
